Assay results: patent US4259235A, “Tricyclic nitrogenous compounds having string plant growth regulating properties” (BASF Aktiengesellschaft, priority 1977, dated 1981)
Like-named read-outs stand apart in the source and are kept apart here.

Assays:
Cynodon dactylon = experiment: Shoot growth, postemergence treatment in the greenhouse (table 26); type: in vivo; conditions: from seed
Experimental: (§1) Plastic flowerpots having a volume of 300 cm^3 were filled with a sandy loam and the test plants placed therein (either as seed, as vegetatively reproduced species, or as potted plants, e.g., vines). For preemergence treatment, the active ingredients were suspended or emulsified in water as vehicle and sprayed onto the surface of the soil immediately after sowing by means of finely distributing nozzles. The potted vines were treated by spraying them with the correspondingly diluted liquor. For postemergence treatment, the agents were, as stated above, sprayed in water onto the leaves of the test plants, some liquor also falling onto the soil. In some special cases, solid active ingredients were first dissolved in dimethylformamide and then applied in a total liquor amount of 400 liters of water per hectare. For the postemergence treatment, the plants were first grown to a height of from 3 to 10 cm before being treated. With grasses, the first growth was cut, and the new growth treated 2 to 3 days after cutting. The temperature requirements of the plants were taken into account by placing them in cooler or warmer sections of the greenhouse. The experiments were run for from 4 to 6 weeks, during which time the plants were tended and their reaction to the various treatments was assessed.
(§2) The application rates are given in kg/ha of active ingredient, regardless of the method of application and the amount of water used.
(§3) A 0 to 100 scale was used for the evaluation, 0 denoting normal emergence or no damage (or no inhibition), and 100 denoting non-emergence or complete destruction of the plants. A distinction should be made in the influence on growth between desired changes without any appreciable disadvantageous phytotoxic effects (e.g., purely growth-regulating effects) and those of a phytotoxic herbicical character.

Euphorbia geniculata [1] = experiment: as above; type: in vivo
Experimental: as §1, §2, §3

Hordeum vulgare = experiment: as above; type: in vivo
Experimental: as §1, §2, §3

Lolium mult. = experiment: Herbicidal action, pre- and postemergence application in the greenhouse; type: in vivo; conditions: Lolium, post-emergence, read-out: % damage
Experimental: as §1, §2, §3

Mentha piper. = experiment: as above; type: in vivo; conditions: post-emergence; 3.0 kg/ha POST; read-out: % damage
Experimental: as §1, §2, §3

Sinapis alba = experiment: as above; type: in vivo; conditions: post-emergence, 3.0 kg/ha PRE, read-out: % damage
Experimental: as §1, §2, §3

Ipom. spp. = experiment: as above; type: in vivo, Ipomoea spp.; conditions: Ipomoea, post-emergence; 3.0 kg/ha POST; read-out: % damage
Experimental: as §1, §2, §3

Cynodon dact. (seed) = experiment: as above; type: in vivo, Cynodon dactylon; conditions: appln. rate 2 kg/ha, POST line
Experimental: as §1, §2, §3

Galium apar. = experiment: as above; type: in vivo, Galium aparine; conditions: post-emergence, 3.0 kg/ha POST, read-out: % damage
Experimental: as §1, §2, §3

Poa pratensis [2] = experiment: Shoot growth, postemergence treatment in the greenhouse (table 26); type: in vivo
Experimental: as §1, §2, §3

Arachys hypog. = experiment: Shoot inhibition, pre- and postemergence treatment (table 28); type: in vivo, Arachys hypogaea; conditions: post-emergence, read-out: % shoot inhibition
Experimental: as §1, §2, §3

Glycine max = experiment: as above; type: in vivo; conditions: post-emergence, read-out: % shoot inhibition; for inhibition at 1000 g/ha: 1.0 kg/ha PRE; for inhibition at 2000 g/ha: 2.0 kg/ha PRE
Experimental: as §1, §2, §3

Poa prat. = experiment: as above; type: in vivo; conditions: Poa pratensis, post-emergence, read-out: % shoot inhibition
Experimental: as §1, §2, §3

Tritic. aestiv. = experiment: as above; type: in vivo; conditions: post-emergence, read-out: % shoot inhibition
Experimental: as §1, §2, §3

Euphorbia genic. = experiment: as above; type: in vivo, Euphorbia geniculata; conditions: post-emergence, read-out: % shoot inhibition; for inhibition at 1000 g/ha: 1.0 kg/ha PRE; for inhibition at 2000 g/ha: 2.0 kg/ha PRE
Experimental: as §1, §2, §3

Cynodon dactyl. = experiment: as above; type: in vivo, Cynodon dactylon; conditions: post-emergence, from seed, read-out: % shoot inhibition
Experimental: as §1, §2, §3

Hordeum vulg. = experiment: as above; type: in vivo, Hordeum vulgare; conditions: post-emergence, read-out: % shoot inhibition
Experimental: as §1, §2, §3

Euphorbia geniculata [3] = experiment: Inhibition of shoot growth by growth regulators, pre- and postemergence (table 27); type: in vivo; conditions: Euphorbia heterophylla, post-emergence, read-out: shoot growth inhibition (%)
Experimental: as §1, §2, §3

Medicago sativa = experiment: as above; type: in vivo; conditions: post-emergence, read-out: shoot growth inhibition (%)
Experimental: as §1, §2, §3

Arachys hypogaea = experiment: Shoot growth, postemergence treatment in the greenhouse (table 25); type: in vivo
Experimental: as §1, §2, §3

Oryza sativa = experiment: as above; type: in vivo
Experimental: as §1, §2, §3

Poa pratensis [4] = experiment: as above; type: in vivo
Experimental: as §1, §2, §3

Clc1ccc(NC2C(Cl)C3CC2C2N=NC32)cc1 (centres unmarked) [drawing 435]
Shoot length (Cynodon dactylon; 1.0 kg/ha): 5 cm
Shoot length (Cynodon dactylon; 2.0 kg/ha): 5 cm
Shoot length (Euphorbia geniculata [1]; 0.5 kg/ha): 9 cm
Shoot length (Euphorbia geniculata [1]; 1.0 kg/ha): 9 cm
Shoot length (Euphorbia geniculata [1]; 2.0 kg/ha): 9 cm
Shoot length (Hordeum vulgare; 0.5 kg/ha): 12.5 cm
Shoot length (Hordeum vulgare; 1.0 kg/ha): 12 cm
Shoot length (Hordeum vulgare; 2.0 kg/ha): 12 cm

Cc1ccc(NC2C(Br)C3CC2C2N=NC32)cc1 (centres unmarked)
pest or weed control at 3000 g/ha (Lolium mult.; 3.0 kg/ha POST): 100%
pest or weed control at 3000 g/ha (Lolium mult.; 3.0 kg/ha PRE): 95%
pest or weed control at 3000 g/ha (Mentha piper.): 100%
pest or weed control at 3000 g/ha (Sinapis alba): 100%
pest or weed control at 3000 g/ha (Ipom. spp.): 100%
% damage (Cynodon dact. (seed)): 100%
pest or weed control at 3000 g/ha (Galium apar.): 80%

OC1C2CC(C3N=NC23)C1Nc1ccc(Cl)cc1 (centres unmarked)
Shoot length (Cynodon dactylon; 1.0 kg/ha): 6 cm
Shoot length (Cynodon dactylon; 2.0 kg/ha): 6 cm
Shoot length (Hordeum vulgare; 0.5 kg/ha): 16 cm
Shoot length (Hordeum vulgare; 1.0 kg/ha): 15 cm
Shoot length (Hordeum vulgare; 2.0 kg/ha): 14 cm
Shoot length (Poa pratensis [2]; 1.0 kg/ha): 13 cm
Shoot length (Poa pratensis [2]; 2.0 kg/ha): 13 cm

c1ccc(C2=NNC3C4CC(C5N=NC45)C23)cc1 (centres unmarked) [drawing 438]
inhibition at 1000 g/ha (Arachys hypog.; 1.0 kg/ha POST): 20%
inhibition at 1000 g/ha (Arachys hypog.; 1.0 kg/ha PRE): 10%
inhibition at 2000 g/ha (Arachys hypog.; 2.0 kg/ha POST): 30%
inhibition at 2000 g/ha (Arachys hypog.; 2.0 kg/ha PRE): 10%
inhibition at 1000 g/ha (Glycine max): 10%
inhibition at 2000 g/ha (Glycine max): 25%
inhibition at 1000 g/ha (Poa prat.; 1.0 kg/ha PRE): 60%
inhibition at 2000 g/ha (Poa prat.; 2.0 kg/ha PRE): 60%
inhibition at 1000 g/ha (Tritic. aestiv.; 1.0 kg/ha POST): 10%
inhibition at 1000 g/ha (Tritic. aestiv.; 1.0 kg/ha PRE): 30%
inhibition at 2000 g/ha (Tritic. aestiv.; 2.0 kg/ha POST): 20%
inhibition at 2000 g/ha (Tritic. aestiv.; 2.0 kg/ha PRE): 30%
inhibition at 1000 g/ha (Euphorbia genic.): 10%
inhibition at 2000 g/ha (Euphorbia genic.): 30%
inhibition at 1000 g/ha (Cynodon dactyl.; 1.0 kg/ha POST): 13%
inhibition at 1000 g/ha (Cynodon dactyl.; 1.0 kg/ha PRE): 10%
inhibition at 2000 g/ha (Cynodon dactyl.; 2.0 kg/ha POST): 25%
inhibition at 2000 g/ha (Cynodon dactyl.; 2.0 kg/ha PRE): 10%
inhibition at 1000 g/ha (Hordeum vulg.; 1.0 kg/ha POST): 30%
inhibition at 1000 g/ha (Hordeum vulg.; 1.0 kg/ha PRE): 25%
inhibition at 2000 g/ha (Hordeum vulg.; 2.0 kg/ha POST): 30%
inhibition at 2000 g/ha (Hordeum vulg.; 2.0 kg/ha PRE): 25%

c1ccc(C2=NOC3C4CC(C5N=NC45)C23)cc1 (centres unmarked) [drawing 437]
inhibition at 500 g/ha (Euphorbia geniculata [3]; 0.5 kg/ha PRE): 33%
inhibition at 1000 g/ha (Euphorbia geniculata [3]; 1.0 kg/ha PRE): 40%
inhibition at 2000 g/ha (Euphorbia geniculata [3]; 2.0 kg/ha POST): 30%
inhibition at 4000 g/ha (Euphorbia geniculata [3]; 4.0 kg/ha POST): 30%
inhibition at 2000 g/ha (Medicago sativa; 2.0 kg/ha POST): 20%
inhibition at 4000 g/ha (Medicago sativa; 4.0 kg/ha POST): 20%

C1C2C3N=NC3C1C1OC21 (centres unmarked) [drawing 433]
Shoot length (Arachys hypogaea; 1.0 kg/ha): 10 cm
Shoot length (Arachys hypogaea; 2.0 kg/ha): 10 cm
Shoot length (Arachys hypogaea; 4.0 kg/ha): 10 cm
Shoot length (Oryza sativa; 1.0 kg/ha): 16 cm
Shoot length (Oryza sativa; 2.0 kg/ha): 16 cm
Shoot length (Oryza sativa; 4.0 kg/ha): 16 cm
Leaf scorch (footnote x) (Poa pratensis [4]; 1.0, 2.0 and 4.0 kg/ha): limited leaf scorch
Shoot length (Poa pratensis [4]; 1.0 kg/ha): 2 cm
Shoot length (Poa pratensis [4]; 2.0 kg/ha): 2 cm
Shoot length (Poa pratensis [4]; 4.0 kg/ha): 2 cm

C1C2C3N=NC3C1C1OC21 (centres unmarked) [drawing 445]
pest or weed control at 3000 g/ha (Lolium mult.; 3.0 kg/ha POST): 100%
pest or weed control at 3000 g/ha (Lolium mult.; 3.0 kg/ha PRE): 95%
pest or weed control at 3000 g/ha (Mentha piper.): 100%
pest or weed control at 3000 g/ha (Sinapis alba): 90%
pest or weed control at 3000 g/ha (Ipom. spp.): 100%
pest or weed control at 3000 g/ha (Galium apar.): 60%

FC(F)(F)c1cccc(NC2C(Br)C3CC2C2N=NC32)c1 (centres unmarked)
pest or weed control at 3000 g/ha (Lolium mult.; 3.0 kg/ha POST): 100%
pest or weed control at 3000 g/ha (Lolium mult.; 3.0 kg/ha PRE): 100%
pest or weed control at 3000 g/ha (Mentha piper.): 95%
pest or weed control at 3000 g/ha (Sinapis alba): 95%
pest or weed control at 3000 g/ha (Ipom. spp.): 100%
pest or weed control at 3000 g/ha (Galium apar.): 90%

[O-][N+]1=NC2C3CC(C(Br)C3Br)C21 (centres unmarked)
pest or weed control at 3000 g/ha (Lolium mult.; 3.0 kg/ha POST): 85%
pest or weed control at 3000 g/ha (Lolium mult.; 3.0 kg/ha PRE): 80%
pest or weed control at 3000 g/ha (Mentha piper.): 95%
pest or weed control at 3000 g/ha (Sinapis alba): 80%
pest or weed control at 3000 g/ha (Ipom. spp.): 60%
pest or weed control at 3000 g/ha (Galium apar.): 40%

C[N+](C)(C)CCCl [[ClCH2CH2N⊕(CH3)3]⊖, reference compound]
Shoot length (Arachys hypogaea; 1.0 kg/ha): 16 cm
Shoot length (Arachys hypogaea; 2.0 kg/ha): 16 cm
Shoot length (Arachys hypogaea; 4.0 kg/ha): 16 cm
Shoot length (Oryza sativa; 1.0 kg/ha): 20 cm
Shoot length (Oryza sativa; 2.0 kg/ha): 20 cm
Shoot length (Oryza sativa; 4.0 kg/ha): 20 cm
Shoot length (Poa pratensis [4]; 1.0 kg/ha): 4 cm
Shoot length (Poa pratensis [4]; 2.0 kg/ha): 4 cm
Shoot length (Poa pratensis [4]; 4.0 kg/ha): 3 cm

CN(C)NC(=O)CCC(=O)O [drawing 439]
inhibition at 1000 g/ha (Arachys hypog.; 1.0 kg/ha POST): 30%
inhibition at 1000 g/ha (Arachys hypog.; 1.0 kg/ha PRE): 50%
inhibition at 2000 g/ha (Arachys hypog.; 2.0 kg/ha POST): 30%
inhibition at 2000 g/ha (Arachys hypog.; 2.0 kg/ha PRE): 50%
inhibition at 1000 g/ha (Glycine max): 0%
inhibition at 2000 g/ha (Glycine max): 0%
inhibition at 1000 g/ha (Euphorbia genic.): 0%
inhibition at 2000 g/ha (Euphorbia genic.): 0%
inhibition at 1000 g/ha (Cynodon dactyl.; 1.0 kg/ha POST): 20%
inhibition at 2000 g/ha (Cynodon dactyl.; 2.0 kg/ha POST): 20%

c1ccc(C2=NOC3C4CC(C5N=NC45)C23)cc1 (centres unmarked) [drawing 453]
pest or weed control at 3000 g/ha (Lolium mult.; 3.0 kg/ha POST): 100%
pest or weed control at 3000 g/ha (Lolium mult.; 3.0 kg/ha PRE): 100%
pest or weed control at 3000 g/ha (Mentha piper.): 75%
pest or weed control at 3000 g/ha (Sinapis alba): 90%
pest or weed control at 3000 g/ha (Ipom. spp.): 100%
% damage (Cynodon dact. (seed)): 100%
pest or weed control at 3000 g/ha (Galium apar.): 95%
